The target in this assay is T1, K-Ras G12C (Homo sapiens, UniProt P01116, G12C).
T1 construct: This protein contained 188 amino acids in total, including an N-terminal 6-Histidine tag; made in house; host or cells: E. coli BL21
The assay is described as follows: CAF assay (% CAF; method in Example 7, not in this part). Format: binding. Particulars: 10 uM, 1 h; Table 3.

The record followed here is patent US20230107642A1 (Erasca, Inc., priority 2020, published 2023).

With `C=CC(=O)N1CCN(c2nc(=O)n3c4c(c(-c5ccc(F)cc5F)c(Br)cc24)SCC3)[C@@H](C)C1` [Example 142, 7-((S)-4-acryloyl-2-methylpiperazin-1-yl)-9-bromo-10-(2,4-difluorophenyl)-2,3-dihydro-5H-[1,4]thiazino[2,3,4-ij]quinazolin-5-one], the “% CAF @ 10 uM, 1h” value was determined as 94.7%. For `C=CC(=O)N1CCN(c2nc(=O)n3c4c(c(-c5ccc(F)cc5F)c(C5CC5)cc24)SCC3)[C@@H](C)C1` [Example 143, 7-((S)-4-acryloyl-2-methylpiperazin-1-yl)-9-cyclopropyl-10-(2,4-difluorophenyl)-2,3-dihydro-5H-[1,4]thiazino[2,3,4-ij]quinazolin-5-one] the value was 95.4%; for `C=CC(=O)N1CCN(c2nc(=O)n3c4c(c(-c5ccc(F)cc5F)c(Cl)cc24)SCC3)C2CSCC21` (stereo not drawn) [Example 144, 7-(4-acryloylhexahydrothieno[3,4-b]pyrazin-1(2H)-yl)-9-chloro-10-(2,4-difluorophenyl)-2,3-dihydro-5H-[1,4]thiazino[2,3,4-ij]quinazolin-5-one], 64.9%; for `C=CC(=O)N1CCN(c2nc(=O)n3c4c(c(-c5ccc(F)cc5F)c(Cl)cc24)SCC3)C2CCC21` (stereo not drawn) [Example 145, 7-(5-acryloyl-2,5-diazabicyclo[4.2.0]octan-2-yl)-9-chloro-10-(2,4-difluorophenyl)-2,3-dihydro-5H-[1,4]thiazino[2,3,4-ij]quinazolin-5-one], 58%. `C=CC(=O)N1CCN(c2nc(=O)n3c4c(c(-c5c(F)cc(F)cc5F)c(Cl)cc24)SCC3)[C@@H](C)C1` [Example 146, (S)-7-(4-acryloyl-2-methylpiperazin-1-yl)-9-chloro-10-(2,4,6-trifluorophenyl)-2,3-dihydro-5H-[1,4]thiazino[2,3,4-ij]quinazolin-5-one]: the “% CAF @ 10 uM, 1h” value is recorded as 90.7%. For `C=CC(=O)N1CCN(c2nc(=O)n3c4c(c(-c5ccc(F)cc5F)c(Cl)cc24)SCC3CN2CCOCC2)[C@@H](C)C1` (stereo partly drawn) [Example 147, 7-((S)-4-acryloyl-2-methylpiperazin-1-yl)-9-chloro-10-(2,4-difluorophenyl)-3-(morpholinomethyl)-2,3-dihydro-5H-[1,4]thiazino[2,3,4-ij]quinazolin-5-one] the value was 44.6%; for `C=CC(=O)N1CCN(c2nc(=O)n3c4c(c(-c5ccc(F)cc5F)c(Cl)cc24)S(=O)(=O)CC3)[C@@H](C)C1` [Example 148], 95.9%.

As for `C=CC(=O)N1CCN(c2nc(=O)n3c4c(c(-c5ccc(F)cc5F)c(Cl)cc24)S(=O)(=O)CC3)[C@@H](C)C1` [Example 149, (S)-7-((S)-4-acryloyl-2-methylpiperazin-1-yl)-9-chloro-10-(2,4-difluorophenyl)-2,3-dihydro-5H-[1,4]thiazino[2,3,4-ij]quinazolin-5-one 1,1-dioxide], the “% CAF @ 10 uM, 1h” value was determined as 52.8%. For `C=CC(=O)N1CCN(c2nc(=O)n3c4c(c(-c5ccc(F)cc5F)c(Cl)cc24)SCC3)[C@@H](CO)C1` [Example 150, 7-((R)-4-acryloyl-2-(hydroxymethyl)piperazin-1-yl)-9-chloro-10-(2,4-difluorophenyl)-2,3-dihydro-5H-[1,4]thiazino[2,3,4-ij]quinazolin-5-one] the value was 59.9%; for `C=CC(=O)N1CCN(c2nc(=O)n3c4c(c(-c5ccc(F)cc5)c(Cl)cc24)SCC3)[C@@H](C)C1` [Example 151, (S)-7-(4-acryloyl-2-methylpiperazin-1-yl)-9-chloro-10-(4-fluorophenyl)-2,3-dihydro-5H-[1,4]thiazino[2,3,4-ij]quinazolin-5-one], 94.1%.

For the compound `C=CC(=O)N1CCN(c2nc(=O)n3c4c(c(-c5cc(O)ccc5F)c(Cl)cc24)SCC3)[C@@H](C)C1` [Example 152, 7-((S)-4-acryloyl-2-methylpiperazin-1-yl)-9-chloro-10-(2-fluoro-5-hydroxyphenyl)-2,3-dihydro-5H-[1,4]thiazino[2,3,4-ij]quinazolin-5-one], the “% CAF @ 10 uM, 1h” value was 55.3%. For `C=CC(=O)N1CCN(c2nc(=O)n3c4c(c(-c5cc(O)ccc5Cl)c(Cl)cc24)SCC3)[C@@H](C)C1` [Example 153, 7-((S)-4-acryloyl-2-methylpiperazin-1-yl)-9-chloro-10-(2-chloro-5-hydroxyphenyl)-2,3-dihydro-5H-[1,4]thiazino[2,3,4-ij]quinazolin-5-one] the value was 55.7%; for `C=CC(=O)N1CCN(c2nc(=O)n3c4c(c(-c5cccc6ccccc56)c(Cl)cc24)SCC3)[C@@H](C)C1` [Example 154, (R)-7-((S)-4-acryloyl-2-methylpiperazin-1-yl)-9-chloro-10-(naphthalen-1-yl)-2,3-dihydro-5H-[1,4]thiazino[2,3,4-ij]quinazolin-5-one], 24%. For `C=CC(=O)N1CCN(c2nc(=O)n3c4c(c(-c5cccc6ccccc56)c(Cl)cc24)SCC3)[C@@H](C)C1` [Example 155, (S)-7-((S)-4-acryloyl-2-methylpiperazin-1-yl)-9-chloro-10-(naphthalen-1-yl)-2,3-dihydro-5H-[1,4]thiazino[2,3,4-ij]quinazolin-5-one] the value was 92.2%. For `C=CC(=O)N1[C@@H](C)CN(c2nc(=O)n3c4c(c(-c5ccc(F)cc5F)c(Cl)cc24)SCC3)C[C@@H]1C` [Example 156, 7-((3S,5S)-4-acryloyl-3,5-dimethylpiperazin-1-yl)-9-chloro-10-(2,4-difluorophenyl)-2,3-dihydro-5H-[1,4]thiazino[2,3,4-ij]quinazolin-5-one] the value was 0%. Turning to `C=CC(=O)N1[C@H](C)CN(c2nc(=O)n3c4c(c(-c5ccc(F)cc5F)c(Cl)cc24)SCC3)C[C@@H]1C` [Example 157, 7-((3R,5S)-4-acryloyl-3,5-dimethylpiperazin-1-yl)-9-chloro-10-(2,4-difluorophenyl)-2,3-dihydro-5H-[1,4]thiazino[2,3,4-ij]quinazolin-5-one], the “% CAF @ 10 uM, 1h” value is 95%. The same measure for `C=CC(=O)N1CCN(c2nc(=O)n3c4c(c(-c5ccc(F)cc5F)c(Cl)cc24)SCC3)[C@H](C)C1` [Example 158, 7-((R)-4-acryloyl-2-methylpiperazin-1-yl)-9-chloro-10-(2,4-difluorophenyl)-2,3-dihydro-5H-[1,4]thiazino[2,3,4-ij]quinazolin-5-one]: 64%; for `C=CC(=O)N1CCN(c2nc(=O)n3c4c(c(-c5c(C)ccc6[nH]ncc56)c(Cl)cc24)SCC3)[C@@H](C)C1` [Example 159, 7-((S)-4-acryloyl-2-methylpiperazin-1-yl)-9-chloro-10-(5-methyl-1H-indazol-4-yl)-2,3-dihydro-5H-[1,4]thiazino[2,3,4-ij]quinazolin-5-one]: 37.2%. The same measure for `C=CC(=O)N1CCN(c2nc(=O)n3c4c(c(-c5ccccc5F)c(Cl)cc24)SCC3)[C@@H](C)C1` [Example 160, 7-((S)-4-acryloyl-2-methylpiperazin-1-yl)-9-chloro-10-(2-fluorophenyl)-2,3-dihydro-5H-[1,4]thiazino[2,3,4-ij]quinazolin-5-one]: 72.7%.

Consider `C=CC(=O)N1C[C@H](C#N)N(c2nc(=O)n3c4c(c(-c5ccc(F)cc5F)c(Cl)cc24)SCC3)C[C@H]1C` [Example 161, (2R,5R)-4-acryloyl-1-(9-chloro-10-(2,4-difluorophenyl)-5-oxo-2,3-dihydro-5H-[1,4]thiazino[2,3,4-ij]quinazolin-7-yl)-5-methylpiperazine-2-carbonitrile], for which the “% CAF @ 10 uM, 1h” value turned out to be 1%.

Consider `C=CC(=O)N1CCN(c2nc(=O)n3c4c(c(-c5cc(C(F)F)ccc5F)c(Cl)cc24)SCC3)[C@@H](C)C1` [Example 162, 7-((S)-4-acryloyl-2-methylpiperazin-1-yl)-9-chloro-10-(5-(difluoromethyl)-2-fluorophenyl)-2,3-dihydro-5H-[1,4]thiazino[2,3,4-ij]quinazolin-5-one], for which the “% CAF @ 10 uM, 1h” value was found to be 39%.

Take `C=CC(=O)N1CCN(c2nc(=O)n3c4c(c(-c5cc(OC(F)F)ccc5F)c(Cl)cc24)SCC3)[C@@H](C)C1` [Example 163, 7-((S)-4-acryloyl-2-methylpiperazin-1-yl)-9-chloro-10-(5-(difluoromethoxy)-2-fluorophenyl)-2,3-dihydro-5H-[1,4]thiazino[2,3,4-ij]quinazolin-5-one]: the “% CAF @ 10 uM, 1h” value is recorded as 41.4%. For `C=CC(=O)N1CCN(c2nc(=O)n3c4c(c(-c5ccc(F)cc5F)c(Cl)cc24)SCC3)CC1` [Example 164, 7-(4-acryloylpiperazin-1-yl)-9-chloro-10-(2,4-difluorophenyl)-2,3-dihydro-5H-[1,4]thiazino[2,3,4-ij]quinazolin-5-one] the value was 95.1%; for `C=CC(=O)N1C2CC1CN(c1nc(=O)n3c4c(c(-c5ccc(F)cc5F)c(Cl)cc14)SCC3)C2` [Example 165, 7-(6-acryloyl-3,6-diazabicyclo[3.1.1]heptan-3-yl)-9-chloro-10-(2,4-difluorophenyl)-2,3-dihydro-5H-[1,4]thiazino[2,3,4-ij]quinazolin-5-one], 16.9%. The same measure for `C=CC(=O)N1CCN(c2nc(=O)n3c4c(c(-c5ccc(F)cc5F)c(Cl)cc24)SCC3)CC1=O` [Example 166, 7-(4-acryloyl-3-oxopiperazin-1-yl)-9-chloro-10-(2,4-difluorophenyl)-2,3-dihydro-5H-[1,4]thiazino[2,3,4-ij]quinazolin-5-one]: 65.5%; for `C=CC(=O)N1CCN(c2nc(=O)n3c4c(c(-c5ccccc5C(F)(F)F)c(Cl)cc24)SCC3)[C@@H](C)C1` [Example 167, 7-((S)-4-acryloyl-2-methylpiperazin-1-yl)-9-chloro-10-(2-(trifluoromethyl)phenyl)-2,3-dihydro-5H-[1,4]thiazino[2,3,4-ij]quinazolin-5-one]: 69.8%; for `C=CC(=O)N1CCN(c2nc(=O)n3c4c(c(-c5c(O)cccc5F)c(Cl)cc24)SCC3)[C@@H](C)C1` [Example 168, 7-((S)-4-acryloyl-2-methylpiperazin-1-yl)-9-chloro-10-(2-fluoro-6-hydroxyphenyl)-2,3-dihydro-5H-[1,4]thiazino[2,3,4-ij]quinazolin-5-one]: 30.6%.
